From ChEMBL document CHEMBL4680352, “Rational design and synthesis of 6-aryl-6H-benzo[c]chromenes as non-steroidal progesterone receptor antagonists for use against cancers” (Bioorg Med Chem, 2021)
Activity calls are given as the source filed them. The rule behind the calls is not given here.

What was measured:
PC-3 = assay: Antiproliferative activity against human PC-3 cells assessed as inhibition of cell viability after 72 hrs by CCK-8 assay; format: functional, cell-based; conditions: PC-3, 72 h
MCF7 [1] = assay: Induction of apoptosis in human MCF7 cells assessed as increase in p53 expression measured at 3 to 12 uM after 48 hrs by Western blot analysis; format: functional, cell-based; conditions: dose 3-12 µM
MCF7 [2] = assay: Antiproliferative activity against human MCF7 cells assessed as inhibition of cell viability after 72 hrs by CCK-8 assay; format: functional, cell-based; conditions: MCF7, 72 h
MCF7 [3] = assay: Decrease in Bcl-2 expression in human MCF7 cells at 3 to 12 uM measured after 48 hrs by Western blot analysis; format: functional, cell-based; conditions: dose 3-12 µM
BGC-823 = assay: Antiproliferative activity against human BGC-823 cells assessed as inhibition of cell viability after 72 hrs by CCK-8 assay; format: functional, cell-based; conditions: BGC-823, 72 h
MCF7 [4] = assay: Induction of apoptosis in human MCF7 cells at 6 uM measured after 72 hrs by Annexin V-FITC and propidium iodide staining based flow cytometry (Rvb =4.62%); format: functional
MCF-10A = assay: Cytotoxicity against human MCF-10A cells assessed as inhibition of cell viability after 72 hrs by CCK-8 assay; format: cell-based
MCF7 [5] = assay: Induction of apoptosis in human MCF7 cells assessed as increase in cleaved caspase-3 level at 3 to 12 uM measured after 24 to 72 hrs by flow cytometry; format: functional, cell-based; conditions: dose 3-12 µM, time 24-72 hrs
MCF7 [6] = assay: Induction of apoptosis in human MCF7 cells assessed as increase in p53 phosphorylation at Ser15 residue at 3 to 12 uM measured after 48 hrs by Western blot analysis; format: functional, cell-based; conditions: dose 3-12 µM
MCF7 [7] = assay: Induction of cell cycle arrest in human MCF7 cells assessed as decrease in CDK4 protein expression at 3 to 12 uM after 48 hrs by Western blot analysis; format: functional, cell-based; conditions: dose 3-12 µM
A549 = assay: Antiproliferative activity against human A549 cells assessed as inhibition of cell viability after 72 hrs by CCK-8 assay; format: functional, cell-based; conditions: A549, 72 h
MCF7 [8] = assay: Induction of apoptosis in human MCF7 cells assessed as increase in ratio of Bax to Bcl2 level measured at 3 to 12 uM after 48 hrs by Western blot analysis; format: functional, cell-based; conditions: dose 3-12 µM
MCF7 [9] = assay: Induction of cell cycle arrest in human MCF7 cells assessed as increase in p21 protein expression after 48 hrs by Western blot analysis; format: functional, cell-based; conditions: dose 3-12 µM
MCF7 [10] = assay: Induction of cell cycle arrest in human MCF7 cells assessed as decrease in cyclin D1 protein expression expression at 3 to 12 uM after 48 hrs by Western blot analysis; format: functional, cell-based; conditions: dose 3-12 µM
[11] = Selectivity index, ratio of IC50 for human MCF-10A cells to IC50 for human MCF-7 cells
MCF7 [12] = assay: Induction of apoptosis in human MCF7 cells at 12 uM measured after 48 hrs by Annexin V-FITC and propidium iodide staining based flow cytometry (Rvb =4.88%); format: functional
MCF7 [13] = assay: Antiproliferative activity against human MCF7 cells assessed as cell growth inhibition at 6 uM by CCK-8 assay; format: functional, cell-based; conditions: time 24-72 hrs, TDE = time-dependent effect
MCF7 [14] = assay: Induction of apoptosis in human MCF7 cells at 6 uM measured after 24 hrs by Annexin V-FITC and propidium iodide staining based flow cytometry (Rvb =3.54%); format: functional
MCF7 [15] = assay: Induction of apoptosis in human MCF7 cells assessed as increase in Bax expression at 3 to 12 uM measured after 48 hrs by Western blot analysis; format: functional, cell-based; conditions: dose 3-12 µM
MCF7 [16] = assay: Induction of apoptosis in human MCF7 cells at 6 uM measured after 48 hrs by Annexin V-FITC and propidium iodide staining based flow cytometry (Rvb =4.88%); format: functional
MDA-MB-231 = assay: Antiproliferative activity against human MDA-MB-231 cells assessed as inhibition of cell viability after 72 hrs by CCK-8 assay; format: functional, cell-based; conditions: MDA-MB-231, 72 h
[17] = target: T1, Progesterone receptor (Homo sapiens) (UniProt P06401); assay: Antagonist activity at PR in human T47D cells assessed as inhibition of progesterone-induced alkaline phosphatase activity by alkaline phosphatase assay; format: cell-based; conditions: filed as antagonist
T1 sequence (whole entry): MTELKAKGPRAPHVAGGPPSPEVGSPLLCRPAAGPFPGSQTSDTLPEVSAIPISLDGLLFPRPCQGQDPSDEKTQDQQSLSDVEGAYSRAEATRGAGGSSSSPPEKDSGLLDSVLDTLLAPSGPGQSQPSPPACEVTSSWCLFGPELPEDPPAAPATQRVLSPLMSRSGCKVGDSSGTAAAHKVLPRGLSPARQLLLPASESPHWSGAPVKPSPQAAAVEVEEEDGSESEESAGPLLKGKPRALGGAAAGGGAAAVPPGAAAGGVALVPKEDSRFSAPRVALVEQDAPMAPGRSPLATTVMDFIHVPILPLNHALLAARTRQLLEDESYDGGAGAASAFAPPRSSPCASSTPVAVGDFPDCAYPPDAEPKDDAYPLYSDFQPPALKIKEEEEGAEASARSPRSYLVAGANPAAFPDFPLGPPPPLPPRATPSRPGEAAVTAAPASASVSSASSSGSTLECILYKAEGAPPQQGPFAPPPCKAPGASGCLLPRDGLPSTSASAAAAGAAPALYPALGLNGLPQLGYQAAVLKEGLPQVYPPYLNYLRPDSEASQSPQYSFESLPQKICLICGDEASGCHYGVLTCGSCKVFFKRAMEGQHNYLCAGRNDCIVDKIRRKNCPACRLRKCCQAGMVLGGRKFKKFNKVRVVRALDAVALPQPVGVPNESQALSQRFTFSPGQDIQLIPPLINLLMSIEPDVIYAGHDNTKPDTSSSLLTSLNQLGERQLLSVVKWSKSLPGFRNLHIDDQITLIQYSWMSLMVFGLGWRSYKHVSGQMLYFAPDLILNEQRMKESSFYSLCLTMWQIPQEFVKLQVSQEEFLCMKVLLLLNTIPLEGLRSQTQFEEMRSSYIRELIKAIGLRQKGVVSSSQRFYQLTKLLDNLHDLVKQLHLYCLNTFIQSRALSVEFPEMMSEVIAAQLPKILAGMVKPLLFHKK

MCF7 [18] = assay: Induction of apoptosis in human MCF7 cells at 3 uM measured after 48 hrs by Annexin V-FITC and propidium iodide staining based flow cytometry (reference value: 4.88%); format: functional

SMILES | IC50 (PC-3) [µM] | Activity (MCF7 [1]) | IC50 (MCF7 [2]) [µM] | inhibition (MCF7 [3]) | IC50 (BGC-823) [µM] | Activity (MCF7 [4]) [%] | IC50 (MCF-10A) [µM] | Activity (MCF7 [5]) | Activity (MCF7 [6]) | Activity (MCF7 [7]) | IC50 (A549) [µM] | Activity (MCF7 [8]) | Activity (MCF7 [9]) | Activity (MCF7 [10]) | Ratio IC50 [11] | Activity (MCF7 [12]) [%] | Activity (MCF7 [13]) | Activity (MCF7 [14]) [%] | Activity (MCF7 [15]) | Activity (MCF7 [16]) [%] | other results
COc1ccccc1C1Oc2ccccc2-c2cc(OCc3ccccc3)c(OCc3ccccc3)cc21 (stereo unspecified) | 7.5 | Active | 5.71 | Active | 7.82 | 36.93 | 51.3 | Active | Active | Active | 10 | Active | Dose-dependent effect | Active | 8.98 | 32.56 | Tde | 13.95 | Active | 22.97 | IC50 (MDA-MB-231): 9.15 µM; inhibition [17]: Active; Activity (MCF7 [18]): 11.71%
COc1cc2c(cc1OC)C(c1ccccc1OC)Oc1ccccc1-2 (stereo unspecified) | 9.32 | Active | 6.32 | Active | 9.1 | 34.38 | 48.9 | Active | Active | Active | 13.2 | Active | Dose-dependent effect | Active | 7.73 | 31.22 | Tde | 11.91 | Active | 18.87 | IC50 (MDA-MB-231): 8.4 µM; inhibition [17]: Active; Activity (MCF7 [18]): 12.98%
